In test [1] the test system is TNF-α production in THP-1 cells. In words: Inhibition of tumor necrosis factor-alpha production in THP-1 cell line (ELISA). The conditions noted are these: for amount of TNF-α produced in THP-1 cells, Average: PMA 25 ng/ml 24 h, then LPS, 24 h, No Drug control 5250; for production of TNF-α in cells (THP-1), result in words: FIG. 2A and Table 1. Format: cell-based, human. As for the experimental part:
The human THP-1 cell line (ATCC) was prepared and cultured at a temperature of 37° C. and under 5% CO2.
Prepared THP-1 cells were inoculated onto a 96-well plate at the density of 1×10^5, and HL-156A, HL-156B, HL-156C, HL-156D, HL-156E, and HL-156F (all produced by Hanoi BioPharma Inc.) were added at the concentration of 1 μM or 10 μM to the cell culture solution. Thereafter, 25 ng/ml of phorbol 12-myristate 13-acetate (PMA, Sigma-Aldrich) was added to the cell culture solution, and cells were cultured for 24 hours, and then, lipopolysaccharide (LPS) was added thereto to induce an immune response of THP-1 cell. As a negative control, a group in which LPS was not added or a group in which
LPS was added but no drug was added, were used.
THP-1 cells were cultured for 24 hours, and then, the amount of tumor necrosis factor-alpha (TNF-α) in the culture solution by using TNF ELISA kit (Invitrogen) was measured.

Test [2] deals with virus-specific CD8+ T cell (GP33+CD8 T cell). Further details: species or system C57BL/6 mouse. The conditions noted are these: mouse, in vivo.
Test [3] has as its system CD8 T cell. Description: Effect on T cell activation in vitro: proliferation of CD8 T cell (CTV, flow cytometry). Format: cell-based, C57BL/6 mice. The conditions noted are these: T cells activated 3 days with anti-CD3/28 Dynabeads; HL-156A 5, 15, 45 or 135 μM and/or 20 nM rapamycin; FIG. 1B. An excerpt:
(§1) The spleen was harvested from normal C57BL/6 mice (Orient Bio) and the mixture obtained by adding a RPMI solution containing 2% (v/v) fetal bovine serum (FBS) to the spleen tissues was homogenized by using a 40 μm strainer.
(§2) T cells were isolated from the homogenized spleen tissue by using CD90.2 magnetic beads (Miltenyi Biotec). Isolated T cells were labeled using CellTrace™ Violet (CTV). Subsequently, labeled T cells were activated for 3 days by using anti-CD3/28 Dynabeads®.
(§3) During T cells were activated, 5 μM, 15 μM, 45 μM, or 135 μM HL-156A (Hanoi BioPharma Inc.), and/or 20 nM rapamycin (LC Laboratories) were added to identify the effect of HL-156A, or the combination of HL-156A and rapamycin on the proliferation of T cells. […]
(§4) Activated T cells were immunostained by using allophycocyanin (APC)-labeled anti-CD4 antibody (BD Biosciences) and peridinin chlorophyll protein complex (PerCP)-labeled anti-CD8 antibody (eBioscience). Immunostained T cells were analyzed by flow cytometric analysis to identify the surface molecular phenotype thereof. From the results obtained by flow cytometric analysis, the proliferation ratio (%) of the T cell with respect to a material treated on the T cell was calculated, and the proliferation ratio (%) of CD4 T cell and the proliferation ratio (%) of CD8 T cell with respect to a compound are shown in FIGS. 1A and 1B, respectively.
(A flow cytometer gives signals particle by particle.)

The subject of test [4] is collagen-induced arthritis mouse model. In words: Collagen-induced arthritis mouse model, arthritis score. Format: in vivo, DBA/1 mouse. The note with it: 60 mg/kg intraperitoneally once every two days; mice with average arthritis score of 8; FIG. 5. As for the experimental part: Bovine Type II collagen was dissolved in complete freund's adjuvant (CFA) containing 250 μg per mouse of heat-sterilized Mycobacterium tuberculosis H37Ra (BD Sciences) to prepare a collagen solution.
DBA/1 mouse was immunized by intradermally injecting […] per mouse of the prepared collagen thereinto. On day 21 after the immunization, bovine Type II collagen dissolved in incomplete freund's adjuvant (IFA) was injected subcutaneously into the tail of a mouse in an amount of 100 μg to boost the immune system.
The arthritis score of mice was measured using the following criteria:
Grade 0: swelling or erythema;
Grade 1: mild swelling and erythema, inflammation of the toes;
Grade 2: moderate swelling and erythema confined to the distal to mid-limbs;
Grade 3: extended to the ankle, clear swelling and erythema; and
Grade 4: Severe swelling, erythema, and joint stiffness of ankle, foot, and toes.
A score of 0 to 4 was assigned to each leg, and a maximum of 16 points of arthritis scores were assigned to each mouse.
Mice with an average arthritis score of 8 were randomly selected. The HL-156A compound was diluted in PBS and administered to the selected mice intraperitoneally once every two days with 60 mg/kg body weight of HL-156A compound.

In test [5] the test system is CD4 T cell. Description: Effect on T cell activation in vitro: proliferation of CD4 T cell (CTV, flow cytometry). Format: cell-based, C57BL/6 mice. The conditions noted are these: T cells activated 3 days with anti-CD3/28 Dynabeads; HL-156A 5, 15, 45 or 135 μM and/or 20 nM rapamycin; FIG. 1A.
Text: as §1, §2, §3, §4

Test [6] deals with TNF-α production in MH7A cells. Description: Inhibition of tumor necrosis factor-alpha production in synoviocyte MH7A (ELISA). Format: cell-based, human. The note with it: for amount of TNF-α in MH7A culture solution, Average: LPS, 24 h, control 1 (HL156A series), 3.53 (HL156B series); for production of TNF-α in the cells (MH7A), result in words: 0.1, 1, 10 μM, Table 2 and FIG. 2B. The protocol: Human synoviocyte cell line MH7A (provided by Prof. Kim Wan-wook of Catholic University) was prepared and cultured at a temperature of 37° C. and under 5% CO2.
The prepared MH7A cells were inoculated onto a 96-well plate at the density of 3×10^4 cells, and lipopolysaccharide (LPS) was added thereto to induce the immune response of MH7A cells. Then, HL-156A or HL-156B was added at a concentration of 0.1 μM, 1 μM, or 10 μM to the cell culture solution. As a negative control, a group in which LPS was used but no drug was used, was used.
After MH7A cells were cultured for 24 hours, the amount of TNF-α in the culture solution was measured by using a TNF-α ELISA kit (Peprotach).
Background: In an ELISA, binding on a coated surface is turned into a signal by an enzyme label.

With `N=C(NC(=N)N1CCCCC1)Nc1ccc(F)cc1` [HL-156C, N1-piperidine-N5-(4-fluoro)phenyl biguanide], the “amount of TNF-α produced in THP-1 cells, Average” value (“amount of TNF-α produced” for short) in test [1] (1 μM compound) was determined as 4825 pg/mL; in test [1] (10 μM compound), 6375 pg/mL.
As for `COc1cc(NC(=N)NC(=N)N2CCCCC2)cc(OC)c1` [HL-156F, N1-piperidine-N5-(3,5-dimethoxy)phenyl biguanide], the entries for the “amount of TNF-α produced” value in test [1] (1 μM compound) and in test [1] (10 μM compound) were 6425 pg/mL and 4650 pg/mL, respectively. For the same compound, in test [1], the “production of TNF-α in cells (THP-1), result in words” value (from here on “production of TNF-α in cells”) is “inhibited the production of TNF-α”.
As to `N=C(NC(=N)N1CCCC1)Nc1ccc(Cl)c(Cl)c1` [HL-156E, N1-pyrrolidine-N5-(3,4-dichloro)phenyl biguanide], the “amount of TNF-α produced” value in test [1] (1 μM compound) is 4725 pg/mL; in test [1] (10 μM compound), 1925 pg/mL. In test [1], the “production of TNF-α in cells” value is recorded as “inhibited the production of TNF-α”.
Consider `N=C(NC(=N)N1CCCCC1)Nc1ccc(-c2nnn[nH]2)cc1` [HL-156D, N1-piperidine-N5-(4-(1H-tetrazole-5-yl))phenyl biguanide], for which the “amount of TNF-α produced” value in test [1] (1 μM compound) stood at 6125 pg/mL; in test [1] (10 μM compound), 5150 pg/mL.
Turning to `N=C(NC(=N)N1CCCC1)Nc1ccc(OC(F)(F)F)cc1` [HL-156A, N1-pyrrolidine-N5-(4-trifluoromethoxy)phenyl biguanide], the “differentiation of TCM cells and TEM cells in PBMCs” value in test [2] is given as “inhibited”. Further, the “proliferation of TEFF cells in PBMCs” value in test [2] was “promoted”. Besides, the “proliferation of CD8 T cell” value in test [3] is reported as “significantly inhibited”. In test [4], the “arthritis score over time” value is given as “decreased the arthritis score over time”. For the same compound, the “proliferation of CD4 T cell” value in test [5] is listed as “significantly inhibited”. In addition, the “amount of TNF-α in MH7A culture solution, Average” value was found to be 0.82 in test [6] (0.1 μM compound), 0.75 in test [6] (1 μM compound) and 0.72 in test [6] (10 μM compound). Also, in test [6], the “production of TNF-α in the cells (MH7A), result in words” value is given as “inhibited the production of TNF-α in a concentration-dependent manner”. In addition, the “amount of TNF-α produced” value is 6750 pg/mL in test [1] (1 μM compound) and 3025 pg/mL in test [1] (10 μM compound). Also, the “production of TNF-α in cells” value in test [1] is reported as “inhibited the production of TNF-α”.
`N=C(NC(=N)N1CCCC1)Nc1ccc(C(F)(F)F)cc1` [HL-156B, N1-pyrrolidine-N5-(4-trifluoromethyl)phenyl biguanide]: the “amount of TNF-α in MH7A culture solution, Average” value is on record as 3.11 in test [6] (0.1 μM compound), 2.56 in test [6] (1 μM compound) and 2.17 in test [6] (10 μM compound). In addition, the “production of TNF-α in the cells (MH7A), result in words” value in test [6] is listed as “inhibited the production of TNF-α in a concentration-dependent manner”. The “amount of TNF-α produced” value stood at 6125 pg/mL in test [1] (1 μM compound) and 2875 pg/mL in test [1] (10 μM compound). Moreover, the “production of TNF-α in cells” value in test [1] is on record as “inhibited the production of TNF-α”.

These data come from patent US11826324B2, “Pharmaceutical compositions for preventing or treating inflammatory disease, autoimmune disease, or combination thereof, and method for using same” (INDUSTRY-ACADEMIC COOPERATION FOUNDATION, YONSEI UNIVERSITY, priority 2017, dated 2023).
